# Test results published in the NIST ThermoML archive (doi:10.1016/j.fluid.2007.11.002).
# Values joined by “and” are separate entries in the source; they are usually repeats but may differ in a detail not shown here. Equal values may be shown once. Numbers after ± are expanded uncertainties.
# How the values were obtained:
# [1] = refractive index (Na D-line) (dimensionless); conditions: 298.15 K; 101.33 kPa; Liquid; Standard Abbe refractometry
# [2] = Liquid, Ebulliometric method (Recirculating still)
refractive index [1],vapor or sublimation pressure ([2]; 323.15 K),vapor or sublimation pressure ([2]; 333.15 K),vapor or sublimation pressure ([2]; 335.85 K),vapor or sublimation pressure ([2]; 343.15 K),vapor or sublimation pressure ([2]; 353.15 K),vapor or sublimation pressure ([2]; 354.65 K),vapor or sublimation pressure ([2]; 363.15 K),vapor or sublimation pressure ([2]; 366.95 K),vapor or sublimation pressure ([2]; 374.45 K),Normal boiling temperature [2],vapor or sublimation pressure ([2]; 325.05 K),vapor or sublimation pressure ([2]; 340.05 K),vapor or sublimation pressure ([2]; 349.75 K),vapor or sublimation pressure ([2]; 355.55 K),Compound
1.3939 ± 0.0012,,12.5 ± 0.34 kPa,,20.35 ± 0.4 kPa,32.25 ± 0.55 kPa and 32.19 ± 0.5 kPa,,,,,107.90 ± 0.22 °C,,,,,CC(C)CO [2-methyl-1-propanol]
1.3823 ± 0.0012,24.4 ± 0.48 kPa,39.06 ± 0.62 kPa,,60.93 ± 0.89 kPa,92.26 ± 1.2 kPa,,,,,82.40 ± 0.22 °C,26.66 kPa,53.33 kPa,79.99 kPa,101.33 kPa,CC(C)(C)O [2-methylpropan-2-ol]
1.3955 ± 0.0012,,,,29.86 ± 0.59 kPa,,,70.25 ± 0.9 kPa,,,99.50 ± 0.22 °C,,,,,CCC(C)O (stereo not given) [butan-2-ol]

Compound,refractive index [1],vapor or sublimation pressure ([2]; 323.15 K),vapor or sublimation pressure ([2]; 333.15 K),vapor or sublimation pressure ([2]; 335.85 K),vapor or sublimation pressure ([2]; 343.15 K),vapor or sublimation pressure ([2]; 353.15 K),vapor or sublimation pressure ([2]; 354.65 K),vapor or sublimation pressure ([2]; 363.15 K),vapor or sublimation pressure ([2]; 366.95 K),vapor or sublimation pressure ([2]; 374.45 K),Normal boiling temperature [2],vapor or sublimation pressure ([2]; 325.05 K),vapor or sublimation pressure ([2]; 340.05 K),vapor or sublimation pressure ([2]; 349.75 K),vapor or sublimation pressure ([2]; 355.55 K)
"C1COCCO1 [1,4-dioxane]",1.4205 ± 0.0012,15.93 ± 0.36 kPa,23.94 ± 0.44 kPa and 24 ± 0.42 kPa,26.66 ± 0.44 kPa,35.19 ± 0.59 kPa and 35.11 ± 0.54 kPa and 35.2 ± 0.54 kPa,50.78 ± 0.8 kPa and 50.41 ± 0.68 kPa and 50.53 ± 0.68 kPa,53.33 ± 0.8 kPa,70.91 ± 0.88 kPa,79.99 ± 1 kPa,101.33 ± 1.1 kPa,101.30 ± 0.22 °C,,,,
